The source of these data is patent US8877765B2, “Highly soluble pyrimido-dione-quinoline compounds and their use in the treatment of cancer” (The United States of America as represented by the …, priority 2006, dated 2014).

Molecules are shown by their SMILES. Where a SMILES comes first, the peptide text is derived from it. [ ]: non-standard residue; d: D form. Nle = CCCC[C@H](N)C(=O)O

One data set relates to AO7 (RNF25). The data set can be described thus: E3 specificity: level of transfected AO7 in MEFs expressing neither Mdm2 nor p53. The settings on record: immunoblotting, FIG. 5.
The target of data set [1] is T1, Hdm2 (Homo sapiens, UniProt Q00987). The data set can be described thus: E3 specificity: level of transfected Hdm2 in MEFs expressing neither Mdm2 nor p53. The settings on record: immunoblotting, FIG. 5.
Text: (§1) Following treatment with ALLN, 1, 2 (10-(4-methyl-phenyl)-7-nitro-10H-pyrimido[4,5-b]quinoline-2,4-dione), 3 (10-(4-chloro-phenyl)-7-nitro-10H-pyrimido[4,5-b]quinoline-2,4-dione), and 4 (10-(3-chloro-phenyl)-7-nitro-10H-pyrimido[4,5-b]quinoline-2,4-dione), levels of the E3s were examined by immunoblotting with specific antibodies.
In data set [2] the target is T1, Hdm2. The settings on record: U2OS cells; FIG. 6.
A further data set deals with gp78 (AMFR) (Homo sapiens, UniProt Q9UKV5). The data set can be described thus: E3 specificity: level of transfected gp78 in MEFs expressing neither Mdm2 nor p53. The settings on record: immunoblotting, FIG. 5.
A further data set relates to p53. Put plainly: p53 response element-driven luciferase reporter in U2OS cells. The class given is cell-based. Conditions: 18 hours, FIG. 3. The procedure:
U2OS cells stably transfected with a p53 response element-driven luciferase were treated with indicated concentration of compounds for 18 hours. The cells were then harvested and lysed to measure luciferase activity using the luciferase assay system (Promega) according to manufacturer's instruction.

In data set [3] the test system is tumor cells expressing wild type p53. The data set can be described thus: Apoptosis-inducing activity in tumor cell lines that do or do not express p53. It counts as cell-based. The settings on record: pair of cell lines that either do or do not express p53; FIG. 7.
The nature of data set [4]: Additional experiments on DNA damage (data not shown).
The next data set relates to Hdm2 and p53. The data set can be described thus: Accumulation of Hdm2 and p53 in non-transformed RPE cells (immunoblot). The class given is cell-based, human. Conditions: 8 hours, 5 μM or 10 μM solution in PBS, or 5 μm solution in DMSO, FIG. 1. The protocol: Human retina pigment epithelial (RPE) cells were cultured with HyQ DME/F (HyClone) supplemented with 10% FCS and 2.5% Sodium Bicarbonate. They were harvested with Trpsin-EDTA and seeded into a 12-well tissue culture cluster and incubated for 18-40 hours to reach 80% confluent. Following treatment with indicated compounds for 8 hours, the cells were harvested and lysed with RIPA buffer. Following removal of insoluble pellet by centrifugation for 20 minutes at 10000 rpm, the lysate was separated on a 4-20% gradient SDS-polyacrylamide gel and transferred onto nitrocellulose membrane. The membrane was then blotted with anti-p53 antibody (DO-1) anti-Hdm2 antibodies (Ab-1 and Ab-2). After extensive washing with PBS containing 0.5% Triton x-100, it was incubated with HRP-conjugated donkey anti-mouse antibody and visualized using enhanced chemiluminescence.

T1 sequence (Q00987 whole entry): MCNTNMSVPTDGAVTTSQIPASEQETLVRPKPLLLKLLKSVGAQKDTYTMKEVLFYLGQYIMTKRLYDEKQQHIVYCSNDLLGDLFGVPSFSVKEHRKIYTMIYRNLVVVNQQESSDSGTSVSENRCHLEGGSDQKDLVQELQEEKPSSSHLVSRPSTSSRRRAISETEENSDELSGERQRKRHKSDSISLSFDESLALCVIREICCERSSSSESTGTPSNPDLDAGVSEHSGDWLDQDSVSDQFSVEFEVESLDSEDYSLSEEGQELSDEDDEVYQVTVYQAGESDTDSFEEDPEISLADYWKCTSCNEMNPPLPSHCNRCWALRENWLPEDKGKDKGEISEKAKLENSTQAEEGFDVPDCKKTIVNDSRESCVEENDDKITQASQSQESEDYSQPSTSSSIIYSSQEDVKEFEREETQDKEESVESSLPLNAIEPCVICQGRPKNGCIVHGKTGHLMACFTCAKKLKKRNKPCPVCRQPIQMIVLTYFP
Sequence of gp78 (AMFR) (Q9UKV5 whole entry, species assumed): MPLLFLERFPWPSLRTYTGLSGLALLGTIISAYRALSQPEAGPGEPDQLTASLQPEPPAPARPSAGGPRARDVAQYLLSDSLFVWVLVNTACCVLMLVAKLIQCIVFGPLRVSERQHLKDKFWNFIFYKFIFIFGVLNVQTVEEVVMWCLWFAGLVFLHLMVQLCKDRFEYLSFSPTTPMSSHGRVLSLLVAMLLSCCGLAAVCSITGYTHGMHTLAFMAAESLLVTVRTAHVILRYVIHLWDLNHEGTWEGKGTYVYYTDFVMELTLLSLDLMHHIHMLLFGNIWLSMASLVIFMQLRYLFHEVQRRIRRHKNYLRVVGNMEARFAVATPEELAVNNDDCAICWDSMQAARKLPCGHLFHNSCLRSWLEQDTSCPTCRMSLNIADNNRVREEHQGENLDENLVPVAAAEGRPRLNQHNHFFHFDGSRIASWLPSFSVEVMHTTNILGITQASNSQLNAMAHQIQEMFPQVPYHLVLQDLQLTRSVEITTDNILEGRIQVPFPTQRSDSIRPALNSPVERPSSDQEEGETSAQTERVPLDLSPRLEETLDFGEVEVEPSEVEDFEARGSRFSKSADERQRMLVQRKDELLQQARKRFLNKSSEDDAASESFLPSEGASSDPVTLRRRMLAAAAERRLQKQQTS
Text for AO7 (RNF25): as §1
Text for gp78 (AMFR): as §1

Regarding `CCCC[C@@H](C=O)NC(=O)[C@H](CC(C)C)NC(=O)[C@H](CC(C)C)NC(C)=O` [ALLN] (Ac-Leu-Leu-[Nle]-aldehyde), in the data set with AO7 (RNF25), the “level of AO7” value is reported as “higher levels”. The “level of Hdm2” value at Hdm2 [1] is “higher levels”. On Hdm2 [2], the “accumulation of ubiquitylated p53” value is “easily detectable”; the “degradation / stabilization of p53 and Hdm2” value was “stabilized Hdm2 and p53”. Further, on gp78 (AMFR), the “level of gp78” value is given as “higher levels”.
As for `CN(C)CCCNc1c2c(=O)n(C)c(=O)nc-2n(C)c2ccccc12` [Compound 1, 5-(3-Dimethylamino-propylamino)-3,10-dimethyl-10H-pyrimido[4,5-b]quinoline-2,4-dione], in the data set on p53, the “capacity to activate a p53 reporter (luciferase activity)” value was “high capacity to activate a p53 reporter”. In addition, in the data set on p53 (concentration of 10 μM), the “p53 reporter activity compared with proteosome inhibitor and Adriamycin” value was “much greater than proteosome inhibitor and Adriamycin”. The “killing of tumor cells by p53 status” value in data set [3] was “preferential killing of tumor cells expressing wild type p53”. Besides, the “functioning by inducing DNA damage” value in data set [4] is reported as “ruled out”. For the same molecule, the “level of gp78” value at gp78 (AMFR) was “little effects”. Further, the “accumulation of both Hdm2 and p53” value in the data set with Hdm2 and p53 was “significant accumulation of both Hdm2 and p53”.
